According to patent publication US20260375146A1, “COMBINATION OF COMPOUNDS FOR DEVELOPING IN VITRO MODELS OF THE BLOOD-BRAIN BARRIER” (HUN-REN SZEGEDI BIOLÓGIAI KUTATÓKÖZPONT, priority 2023, published 2026):
Read-outs that look alike come from different tables or passages of the source.

Legend:
Wnt/β-catenin signaling [1] = conditions: in vitro; cited from earlier work
stem cell-derived ECs = conditions: cited from earlier work
[2] = system: human stem cell-derived ECs; assay: Impedance-based measurement of barrier integrity, human ECs; assay type: cell-based
Description: (§1) Real-time, label-free measurement of barrier integrity was performed in 96-well plates with integrated gold electrodes (E-plate 96: Agilent, cat #300600910) using an xCELLigence RTCA SP device (Agilent). Plates were coated with 0.2% gelatin (Sigma-Aldrich, cat #G2500) and the cell-free background was measured in culture medium for each well. Then, ECs were seeded in the plates at a density of 6×10^3 cells/well and grown until fully confluent, while receiving 50% PC-conditioned medium to acquire brain-like properties. […] For combinatorial treatments, the following concentrations were used: cAMP 250 µM, Ro […], Wnt-3a 300 ng/mL, Wnt-7a 300 ng/mL, LiCl 3 mM, RepSox 10 μM and A83-01 3 μM. For all further experiments on human ECs, combination of cAMP+Ro+LiCl+A83-01 treatment consisted of 250 μM cAMP+17.5 μM Ro+3 mM LiCl+3 μM A83-01. The readout of impedance measurements is cell index, a dimensionless parameter which correlates with the strength of cell-cell contacts and cell adhesion. Cell index was defined as Zn-Z0, where Zn is the impedance at time point n and Zo is the impedance of the cell-free background in each well. Cell index values were normalized to the last time point before treatment.

Wnt/β-catenin signaling [3] = assay: Pharmacological inhibition of Wnt/β-catenin signaling, barrier integrity by impedance; assay type: cell-based, human; conditions: for interference with basal barrier integrity: no combination treatment, titrated inhibitor; for reduction of the effect of cAMP+Ro+LiCl+A83-01 on barrier integrity (impedance): role: inhibitor, ICG-001 5 μM or XAV 939 1 μM, co-treatment 48 h
Description: as §1
Wnt/β-catenin signaling was blocked at two different points using inhibitors ICG-001 (MedChemExpress, cat #HY-14428) and XAV 939 (MedChemExpress, cat #HY-15147). For the measurement of barrier integrity by impedance. ECs were cultured as described above. Confluent monolayers were treated with ICG-001 […] for 48 h at 37 °C, and impedance was measured at 10 kHz every 5 min using the xCELLigence RTCA SP device (Agilent) as described above. […] For the measurement of TEER and tracer permeability, EC-PC co-cultures were assembled and maintained as described above. On day 4, the luminal (blood) side of the model was incubated with the combination of cAMP+Ro+LiC+A83-01 or control medium supplemented with either 5 μM ICG-001 or 1 μM XAV 939 for 48 h at 37 °C. TEER and tracer permeability were then measured and calculated as described above.

Wnt/β-catenin signaling [4] = conditions: role: inhibitor; cited from earlier work
central nervous system = conditions: route of penetration across the BBB; cited from earlier work
[5] = system: EC-PC co-culture BBB model; assay: Penetration of small molecule drugs across the BBB co-culture model; conditions: 1 μM drug; cAMP+Ro+LiCl+A83-01 vs control
Description: Assembly, maintenance and treatment of co-cultures were performed as described above. […] In B-A direction, samples from both compartments were collected at 60 min. In A-B direction, inserts were transferred to a new well with fresh buffer at 30 min, then at the end of the assay samples were collected from the donor (0-60 min) and acceptor compartments (0-30 min, 30-60 min). […] Drug concentrations were determined by standard calibration curves.
where CA is the concentration measured in the acceptor compartment, VA is the volume of the acceptor compartment (1.5 mL) and CD is the treatment concentration in the donor compartment at a given timepoint. […] Papp was then calculated as: […]
where A is the surface area of the insert available for permeability (1.12 cm^2). Efflux ratio was calculated by dividing Papp values in B-A direction by Papp values in A-B direction.
where nA.30, nA.60 and nD.60 are the amounts of substance (pmol) in the accentor compartment at 30 and 60 min as well as the donor compartment at 60 min, respectively, and nT is the amount of substance (pmol) present at the treatment solution at 0 min. In vitro Kp,uu,brain was then calculated as: […]
where CT is the concentration of a drug in the treatment solution at 0 min, CD is the concentration in the donor compartment at 60 min and R is recovery. Calculation of Pearson r^2 and Spearman r coefficients using data referenced in the legend FIG. 5d was performed in GraphPad Prism software (version 5.0).

[6] = system: human endothelial cell and brain pericyte co-culture BBB model; assay: Early experiment: cAMP alone or with PDE4 inhibitor, normalized cell index; assay type: cell-based; conditions: PDE4 inhibitor together with cAMP; in particular within first 24 hours; data not shown
EC monolayers = conditions: alone, especially with astrocyte-conditioned medium; cited from earlier work
[7] = system: human stem cell-derived brain-like ECs; assay: Albumin internalization in ECs; assay type: cell-based; conditions: MβCD 1 mM, 1 h
Description: ECs were cultured in 50% PC-conditioned medium on 35 mm glass bottom Petri dishes (Greiner Bio-One, cat #627860) coated with collagen IV (Sigma-Aldrich, cat #C5533, 100 ng/mL) and fibronectin (Sigma-Aldrich, cat #F1141, 25 μg/mL) at a seeding density of 5×10^4 cells/cm^2. […] After that, culture medium was removed and cells were incubated with Texas Red-conjugated BSA (TR-albumin; Invitrogen, cat #A23017, 5 μg/mL) dissolved in control medium for 2 h at 37 °C. For the final 20 minutes of incubation, Hoechst 33342 (Thermo Fisher, cat #H1399,2 μg/mL) was added to cells to counterstain nuclei. Cultures were washed twice in Ringer-HEPES supplemented with 1% FBS and live-cell imaging was performed immediately in the same buffer using a Leica TCS SP5 AOBS confocal laser scanning microscope equipped with a HCX PL APO 63× oil (NA=1.4) objective with the same parameters as described above. After live-cell imaging, cells were fixed with 3% paraformaldehyde for 15 min at room temperature and immunostained for caveolin-1 exactly as described above. […] Finally, ECs were lysed with 1% Triton X 100 in Milli-Q water and the fluorescent signal of internalized TR-albumin was quantified with a Fluorolog 3 spectrofluorometer (Horiba Jobin Yvon) at 592 nm excitation and 612 nm emission wavelengths. Concentrations of internalized TR-albumin were calculated using a standard calibration curve. […]

For O=C1Nc2cc(Br)ccc2C1=C1Nc2ccccc2C1=NO [6-BIO, 6-bromoindirubin-3-oxim], the “induction of barrier properties” value (Wnt/β-catenin signaling [1]) is given as “induce a subset of barrier properties”.

In the case of Cc1cccc(-c2nn(C(=S)Nc3ccccc3)cc2-c2ccnc3ccccc23)n1 [A83-01, 3-(6-Methyl-2-pyridinyl)-N-phenyl-4-(4-quinolinyl)-1H-pyrazole-1-carbothioamide], the junctional tightness (stem cell-derived ECs) is listed as “elevate junctional tightness” and the “enhancement of the effect of cAMP+Ro on barrier integrity (impedance)” value [2] is listed as “did not enhance”.

In the case of Cc1c[nH]c(-c2cnc(NCCNc3ccc(C#N)cn3)nc2-c2ccc(Cl)cc2Cl)n1 [CHIR99021], the “induction of barrier properties” value (Wnt/β-catenin signaling [1]) is given as “induce a subset of barrier properties”.

For O=C1[C@H](Cc2ccc(O)cc2)N2C(=O)CCN(C(=O)NCc3ccccc3)[C@H]2CN1Cc1cccc2ccccc12 [ICG-001], the “interference with basal barrier integrity” value (Wnt/β-catenin signaling [3]) is given as “do not interfere with basal barrier integrity”, the “reduction of the effect of cAMP+Ro+LiCl+A83-01 on barrier integrity (impedance)” value (Wnt/β-catenin signaling [3]) is given as “moderately” and the “point of inhibition of Wnt signaling” value (Wnt/β-catenin signaling [4]) is given as “specifically inhibits the β-catenin-CREB-binding protein (CBP) interaction in the nucleus”.

For COc1ccc2c(c1)c(CC(=O)O)c(C)n2C(=O)c1ccc(Cl)cc1 [Indomethacin], the BBB transport (central nervous system) is listed as “Passive lipophilic”.

For Nc1nnc(-c2cccc(Cl)c2Cl)c(N)n1 [Lamotrigine], the BBB transport (central nervous system) is given as “Passive lipophilic”.

In the case of [Cl-].[Li+] [LiCl, lithium chloride], the “induction of barrier properties” value (Wnt/β-catenin signaling [1]) is given as “induce a subset of barrier properties” and the “enhancement of the effect of cAMP+Ro on barrier integrity (impedance)” value ([2]; added to cAMP+Ro) is given as “did not enhance”.

For CN(C)C(=O)C(CCN1CCC(O)(c2ccc(Cl)cc2)CC1)(c1ccccc1)c1ccccc1 [Loperamide], the BBB transport (central nervous system) is listed as “Passive hydrophilic, efflux”, the “efflux ratio, change on combination treatment” value (from here on “efflux ratio, change”) [5] is listed as “elevated” and the “permeability (Papp), blood-to-brain (A-B), change on combination treatment” value (shortened to “permeability … change on combination treatment”) [5] is listed as “lower permeability”.

For CC(C)NCC(O)COc1cccc2ccccc12 (stereo not shown) [Propranolol], the BBB transport (central nervous system) is listed as “Passive lipophilic” and the “permeability … change on combination treatment” value [5] is listed as “increased the permeability”.

In the case of Cc1cccc(-c2[nH]ncc2-c2ccc3ncccc3n2)n1 [RepSox], the junctional tightness (stem cell-derived ECs; stem cell-derived ECs, via claudin-5) is given as “elevate junctional tightness”.

For CCCCOc1cc(CC2CNC(=O)N2)ccc1OC (stereo not shown) [Ro 20-1724, 4-(3-Butoxy-4-methoxybenzyl)imidazolidin-2-one], the “barrier integrity as normalized cell index, further increase over cAMP alone” value [6] is given as “further increases barrier integrity” and the “resistance across EC monolayers” value (EC monolayers) is given as “increase resistance across EC monolayers”.

In the case of O=C(O)c1ccccc1O [Salicylic acid], the BBB transport (central nervous system) is given as “Efflux, influx” and the “permeability … change on combination treatment” value [5] is given as “lower permeability”.

For Nc1c2c(nc3ccccc13)CCCC2 [Tacrine], the BBB transport (central nervous system) is given as “Influx” and the “permeability … change on combination treatment” value [5] is given as “increased the permeability”.

In the case of CC[C@]1(O)C[C@@H]2CN(CCc3c([nH]c4ccccc34)[C@@](C(=O)OC)(c3cc4c(cc3OC)N(C)[C@H]3[C@@](O)(C(=O)OC)[C@H](OC(C)=O)[C@]5(CC)C=CCN6CC[C@]43[C@@H]65)C2)C1 [Vinblastine], the BBB transport (central nervous system) is given as “Efflux”, the “efflux ratio, change” value [5] is given as “trend” and the “permeability … change on combination treatment” value [5] is given as “lower permeability”.

For Oc1nc(-c2ccc(C(F)(F)F)cc2)nc2c1CSCC2 [XAV 939], the “interference with basal barrier integrity” value (Wnt/β-catenin signaling [3]) is given as “do not interfere with basal barrier integrity”, the “reduction of the effect of cAMP+Ro+LiCl+A83-01 on barrier integrity (impedance)” value (Wnt/β-catenin signaling [3]) is given as “more potently reduced the effect of the combination of cAMP+Ro+LiCl+A83-01, almost to the level of cAMP+Ro treatment” and the “point of inhibition of Wnt signaling” value (Wnt/β-catenin signaling [4]) is given as “blocks the pathway upstream of nuclear translocation”.

In the case of C=C[C@@]1(C)CC(=O)[C@]2(O)[C@@]3(C)[C@@H](O)CCC(C)(C)[C@@H]3[C@H](O)[C@H](OC(C)=O)[C@@]2(C)O1 [forskolin], the “resistance across EC monolayers” value (EC monolayers) is given as “increase resistance across EC monolayers”.

In the case of Methotrexate, the BBB transport (central nervous system) is listed as “Efflux” and the “efflux ratio, change” value [5] is listed as “elevated”.

For “methyl-β-cyclodextrin [methyl-p-cyclodextrin]”, the “inhibition of albumin internalization (lipid raft/caveolin-mediated endocytosis)” value [7] was “sensitive”.

B1: Wnt-3a: recombinant human Wnt-3a protein (protein, UniProt P56704 19-352, looked up)
Protein Wnt-3a: SYPIWWSLAVGPQYSSLGSQPILCASIPGLVPKQLRFCRNYVEIMPSVAEGIKIGIQECQHQFRGRRWNCTTVHDSLAIFGPVLDKATRESAFVHAIASAGVAFAVTRSCAEGTAAICGCSSRHQGSPGKGWKWGGCSEDIEFGGMVSREFADARENRPDARSAMNRHNNEAGRQAIASHMHLKCKCHGLSGSCEVKTCWWSQPDFRAIGDFLKDKYDSASEMVVEKHRESRGWVETLRPRYTYFKVPTERDLVYYEASPNFCEPNPETGSFGTRDRTCNVSSHGIDGCDLLCCGRGHNARAERRREKCRCVFHWCCYVSCQECTRVYDVHTCK
In the case of B1, the “induction of barrier properties” value (Wnt/β-catenin signaling [1]) is listed as “induce a subset of barrier properties”.
